From article PMC8375242 (International Journal of Nanomedicine, 2021) come the findings set out here.

Data set [1] has as its system murine colon cancer (CT-26). The data set is described as follows: MTT cytotoxicity assay, CT-26. The data set is classed as cell-based. Conditions: read-out: IC50 CT-26 (48 h). Background: Formazan colour is commonly taken as a measure of viable cells.
The next data set deals with human lung cancer (A549). Put plainly: MTT cytotoxicity assay, A549. The data set is classed as cell-based. Conditions: read-out: IC50 A549 (48 h).
Data set [2] concerns cisplatin-resistant cell line A549R. Put plainly: MTT cytotoxicity assay, A549R. The data set is classed as cell-based, human. The settings on record: for IC50: read-out: IC50 A549R (48 h); for RF (resistant factor): RF=IC50(A549R)/IC50(A549).
Data set [3] concerns human normal liver cell line LO-2. The data set is described as follows: MTT cytotoxicity assay, normal cell LO-2. The data set is classed as cell-based. Conditions: for IC50: read-out: IC50 LO-2 (48 h).
The next data set has as its target T1, rhCOX-2 (Homo sapiens, UniProt P35354).
T1 sequence (P35354 18-604): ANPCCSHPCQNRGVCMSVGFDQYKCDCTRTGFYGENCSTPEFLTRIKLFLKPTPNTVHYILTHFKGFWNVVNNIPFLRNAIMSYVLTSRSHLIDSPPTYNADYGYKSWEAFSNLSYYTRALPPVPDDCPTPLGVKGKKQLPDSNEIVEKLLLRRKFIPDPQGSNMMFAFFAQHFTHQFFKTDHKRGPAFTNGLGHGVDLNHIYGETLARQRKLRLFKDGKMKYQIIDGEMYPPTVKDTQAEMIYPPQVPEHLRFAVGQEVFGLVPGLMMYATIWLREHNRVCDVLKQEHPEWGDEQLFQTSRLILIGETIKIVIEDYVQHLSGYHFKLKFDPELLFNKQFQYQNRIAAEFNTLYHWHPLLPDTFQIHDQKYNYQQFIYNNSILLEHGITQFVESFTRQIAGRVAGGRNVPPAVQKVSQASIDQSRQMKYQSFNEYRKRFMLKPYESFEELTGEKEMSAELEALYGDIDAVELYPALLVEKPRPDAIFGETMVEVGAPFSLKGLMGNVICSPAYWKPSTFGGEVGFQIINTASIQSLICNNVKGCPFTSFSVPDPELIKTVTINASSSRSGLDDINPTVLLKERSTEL
The data set is described as follows: biochemical. The settings on record: read-out: COX-2 inhibition.

Data set [4] relates to human ovarian cancer (SKOV-3). Put plainly: MTT cytotoxicity assay, SKOV-3. In kind it is cell-based.
In the next data set the test system is CT-26 homograft tumors. Put plainly: In vivo antitumor assay, CT-26 homograft. Also on record: species or system BALB/c mice. The settings on record: days 6, 9, 12, 14, day 15, saline 1586.
A short description of a further data set: Toxicity in vivo. Also noted: species or system BALB/c mice. The settings on record: 4 mg Pt/kg (1-NPs, oxaliplatin i.v.; 1 i.p.).
The nature of data set [5]: Serum AST, ALT, BUN and CRE detection. In kind it is in vivo, BALB/c mice. The settings on record: 4 mg Pt/kg (1-NPs, oxaliplatin i.v.; 1 i.p.), vs saline.
A further data set deals with iNOS. Put plainly: Immunohistochemical detection of iNOS in tumor tissues. The settings on record: 4 mg Pt/kg (1-NPs, oxaliplatin i.v.), immunohistochemistry. In kind it is in vivo, BALB/c mice.
A further data set deals with MMP-9. The data set is described as follows: Immunohistochemical detection of MMP-9 in tumor tissues. The data set is classed as in vivo, BALB/c mice. The settings on record: 4 mg Pt/kg (1-NPs, oxaliplatin i.v.; 1 i.p.), immunohistochemistry; saline 16.3±1.9.
[6] abbreviates: read-out: IC50 SKOV-3 (48 h), 48 h incubation.
[7] abbreviates: read-out: IC50 SKOV-3 (72 h), 72 h incubation.
[8] abbreviates: MTT, 48 h incubation, normal liver cell.

Like-named read-outs stand apart in the source and are kept apart here.

For `COc1ccc2cc([C@H](C)C(=O)O)ccc2c1` [naproxen], the IC50 in data set [1] (Mus musculus, CT26, 48 h) was greater than 100 µM; with human lung cancer (A549) (Homo sapiens, A549, 48 h), greater than 100 µM; in data set [2] (Homo sapiens, 48 h), greater than 100 µM; in data set [3] (Homo sapiens, 48 h), greater than 100 µM. For the same compound, the inhibition at 40 µM on rhCOX-2 was 74%.

Turning to `O=C1[O][Pt]2([NH][C@@H]3CCCC[C@H]3[NH]2)[O]C1=O` [oxaliplatin], the IC50 in [4] (setting [6]) came to 5.9 ± 1.3 µM; in [4] (setting [7]), 7.5 ± 1.8 µM; in data set [1] (MTT, 48 h incubation) it was 4.1 ± 0.7 µM; in the data set with human lung cancer (A549) (MTT, 48 h incubation), 6.7 ± 1.8 µM; in [2] (MTT, 48 h incubation), 2.4 ± 0.6 µM; in [3] (setting [8]), 4.8 ± 0.7 µM. Also, the “RF (resistant factor)” value in data set [2] is 0.4. In [3] (SI = IC50(LO-2)/Average IC50), the “SI (selectivity index)” value came out at 1.0. The compound also displayed a tumor volume in the data set on CT-26 homograft tumors (4 mg Pt/kg (1-NPs, oxaliplatin i.v.; 1 i.p.)) of 477 mm^3. Besides, the “signs of toxicity during treatment” value in the data set “Toxicity in vivo” was “anorexia and dyskinesia”. In addition, the “H&E histology of heart, liver, spleen, lung and kidney” value in the data set “Toxicity in vivo” (vs saline) is “no appreciable histological differences”. In addition, the spleen weight index result in “Toxicity in vivo” (vs saline) is listed as “remarkable suppressions of spleen”. Also, the “ALT and AST levels in serum” value in data set [5] is “significant enhanced ALT and AST levels”. For the same compound, the “expression of iNOS in tumor tissues” value in the data set with iNOS is listed as “significantly upregulates iNOS”. The “expression of MMP-9, mean optical density” value in the data set with MMP-9 is 6.5±0.5%.

As for `N.N.[Cl][Pt][Cl]` [cisplatin], the 50% inhibitory concentration (IC50) turned out to be 1.9 ± 0.4 µM in [4] (setting [6]); 1.2 ± 0.3 µM in data set [4] (setting [7]); 1.2 ± 0.3 µM in data set [1] (MTT, 48 h incubation); 2.8 ± 0.6 µM in the data set with human lung cancer (A549) (MTT, 48 h incubation); 7.1 ± 1.3 µM in [2] (MTT, 48 h incubation); 3.4 ± 1.2 µM in data set [3] (setting [8]). The figures for the “RF (resistant factor)” value in data set [2] and in data set [2] (listed as CDDP) were 2.57 and 2.6, respectively. The same compound came in with a tumor volume with CT-26 homograft tumors (2 mg Pt/kg (2-NPs, cisplatin i.v.; 2 i.p.)) of 399 mm^3.

Usually IC50 stands for the midpoint of a concentration-inhibition curve. For orientation: inhibition means the share of the control response that was lost under treatment.
